Results reported in US20250319212A1, “GADOLINIUM-BASED COMPOUND, AND MRI CONTRAST AGENT INCLUDING SAME” (KYUNGPOOK NATIONAL UNIVERSITY INDUSTRY-ACADEMIC COOPERATION …, priority 2021, published 2025).

Key:
[1] = Measurement of relaxivity (r1, r2) in 3T MRI phantom; type: physicochemical; settings: tertiary distilled water, 0.0625-1 mM, linear regression, in mM-1·s-1 (unit assumed)
Description: The relaxivity (r1, r2) of each of synthesized Gd-DO3A-Hba, and cyclic commercial contrast agents Gadovist® and Dotarem® as comparison groups material was measured. Specifically, a phantom was prepared by diluting the gadolinium complex in tertiary distilled water to five concentrations (0.0625, 0.125, 0.25, 0.5, 1 mM), and then T1 and T2 relaxation times were measured in 3T MRI. Thus, R (Relaxation rate=1/T) of each concentration was calculated and the relaxivity (r1, r2) result of the gadolinium complex was obtained through linear regression analysis (see FIG. 3) and shown in a following Table 1.

amyloid beta polymer = amyloid beta polymer (Homo sapiens, UniProt P05067); assay: Amyloid beta polymer targeting ability, phantom experiment on 9.4T MR; type: binding; settings: incubated with amyloid beta polymer 37° C. 24 hours, washed pellet, FIG. 6
Chain of amyloid beta polymer (P05067 672-713 limits assumed): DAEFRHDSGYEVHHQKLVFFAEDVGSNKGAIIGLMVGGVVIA
Description: (1) 221.5 μL of HFIP was added to 1 mg of amyloid beta at a concentration of 1 mM, followed by shaking for 1 hour at room temperature using a shaker to remove preaggregation. (2) The amyloid beta from which the preaggregation was removed was dried, and 221.5 μL of DMSO was added thereto to achieve a 1 mM concentration. Using a mixer and sonicator, a suspension thereof was prepared, and 878.5 μL of PBS (1×, pH 7.4) was added thereto to achieve a 0.2 mM concentration. (3) After incubating the suspension at 37° C. for 4 days using a shaker, the polymerized amyloid beta polymer was dispensed by 200 μL. Then, 20 μL of a solution in which each of Gd-DO3A-Hba and the commercial contrast agent (Gadovist®) was dissolved in PBS at 2 mM concentration was added thereto. The incubation was carried out thereon at 37° C. for 24 hours using a shaker. (4) After 24 hours has elapsed, centrifugation was performed thereon to remove the supernatant therefrom. The amyloid beta polymer was washed using PBS. 200 μL of a solution of PBS:DMSO=9:1 was added to a pellet to prepare an MRI phantom sample. As a control, a phantom sample obtained by incubating only the amyloid beta polymer was used. […]

Structure (SMILES)	relaxivity r1 [1]	relaxivity r2 [1]	signal intensity / contrast enhancement compared to phantom of only amyloid beta polymer (amyloid beta polymer)
O=C([O-])CN1CCN(CC(=O)[O-])CCN(CC(=O)[O-])CCN(CC(=O)[O-])CC1.[Gd+3] [Dotarem ®, Gd-DOTA]	3.4 ± 0.1	3.9 ± 0.2	–
O=C([O-])CN1CCN(CC(=O)[O-])CCN([C@H](CO)[C@H](O)CO)CCN(CC(=O)[O-])CC1.[Gd+3] (racemic) [Gadovist ®]	3.9 ± 0.1	4.9 ± 0.1	little difference in contrast enhancement effect
